In one assay the target is T1, WT LacY:Nb-9036 (Escherichia coli, UniProt P02920).
T1 sequence (P02920 whole entry, looked up): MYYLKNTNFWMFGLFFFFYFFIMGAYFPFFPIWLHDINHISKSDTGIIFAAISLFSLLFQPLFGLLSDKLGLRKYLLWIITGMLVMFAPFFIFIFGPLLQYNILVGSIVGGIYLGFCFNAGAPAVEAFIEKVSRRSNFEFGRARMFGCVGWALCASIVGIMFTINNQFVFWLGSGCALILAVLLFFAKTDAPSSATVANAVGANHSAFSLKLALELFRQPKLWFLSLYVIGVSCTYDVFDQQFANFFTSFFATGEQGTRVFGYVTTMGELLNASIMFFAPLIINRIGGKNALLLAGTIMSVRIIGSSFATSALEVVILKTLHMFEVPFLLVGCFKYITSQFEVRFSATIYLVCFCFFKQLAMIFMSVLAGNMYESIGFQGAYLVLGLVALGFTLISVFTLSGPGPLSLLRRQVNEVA
Nature of the assay: ITC, IIA^Glc titration of WT LacY:Nb-9036 complex. Type of assay: binding. Conditions: WT pre-equilibrated with Nb-9036; 10 mM melibiose. On the technique in general: In ITC the heat of successive injections is recorded.

A further assay concerns the target T2, WT LacY:Nb-9065 (Escherichia coli, UniProt P02920).
T2 sequence (P02920 whole entry, looked up): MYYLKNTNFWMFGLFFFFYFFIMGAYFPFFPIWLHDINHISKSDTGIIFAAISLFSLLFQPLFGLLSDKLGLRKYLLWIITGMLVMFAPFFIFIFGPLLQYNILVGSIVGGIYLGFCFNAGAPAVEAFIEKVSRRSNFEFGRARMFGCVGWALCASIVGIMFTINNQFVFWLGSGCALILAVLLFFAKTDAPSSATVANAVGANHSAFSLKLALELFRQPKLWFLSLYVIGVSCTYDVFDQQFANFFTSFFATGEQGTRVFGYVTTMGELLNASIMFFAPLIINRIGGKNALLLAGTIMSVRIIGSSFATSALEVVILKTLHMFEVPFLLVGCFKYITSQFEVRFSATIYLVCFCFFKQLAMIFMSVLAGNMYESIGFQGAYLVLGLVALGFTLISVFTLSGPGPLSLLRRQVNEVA
Conditions: WT pre-equilibrated with Nb-9065; 10 mM melibiose.

The test system of a further assay is double-Trp mutant. Conditions: cited from earlier work.
In assay [1] the target is T3, WT LacY (Escherichia coli, UniProt P02920).
T3 sequence (P02920 whole entry, looked up): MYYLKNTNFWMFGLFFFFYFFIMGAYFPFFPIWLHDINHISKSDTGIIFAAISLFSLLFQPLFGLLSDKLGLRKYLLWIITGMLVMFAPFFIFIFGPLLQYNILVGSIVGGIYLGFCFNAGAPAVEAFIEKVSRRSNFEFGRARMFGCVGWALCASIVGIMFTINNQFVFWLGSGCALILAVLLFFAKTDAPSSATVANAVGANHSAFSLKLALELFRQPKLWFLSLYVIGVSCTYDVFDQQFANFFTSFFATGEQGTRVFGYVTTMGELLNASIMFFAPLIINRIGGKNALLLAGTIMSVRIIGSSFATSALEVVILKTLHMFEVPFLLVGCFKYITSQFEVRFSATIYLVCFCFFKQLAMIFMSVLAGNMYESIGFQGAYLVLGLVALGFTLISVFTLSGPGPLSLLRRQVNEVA
Conditions: cytoplasmic face of the WT; cited from earlier work.

In assay [2] the target is WT LacY (Escherichia coli, UniProt P02920). Nature of the assay: ITC, sugar. It is filed as binding.
In the next assay the target is WT:Nb-9036 (Escherichia coli, UniProt P02920). Nature of the assay: ITC, α-NPG binding to WT LacY:Nb-9036 complex.
A further assay addresses WT:Nb-9065 (Escherichia coli, UniProt P02920). Nature of the assay: ITC, α-NPG binding to WT LacY:Nb-9065 complex.
Assay [3] deals with Double-Trp mutant (G46W/G262W LacY) (Escherichia coli, UniProt P02920, G262W/G46W). Nature of the assay: ITC, α-NPG binding to double-Trp mutant LacY. Conditions: ITC at 25 °C; no Nb.
Double-Trp mutant (G46W/G262W LacY), sequence (P02920 whole entry G46W/G262W): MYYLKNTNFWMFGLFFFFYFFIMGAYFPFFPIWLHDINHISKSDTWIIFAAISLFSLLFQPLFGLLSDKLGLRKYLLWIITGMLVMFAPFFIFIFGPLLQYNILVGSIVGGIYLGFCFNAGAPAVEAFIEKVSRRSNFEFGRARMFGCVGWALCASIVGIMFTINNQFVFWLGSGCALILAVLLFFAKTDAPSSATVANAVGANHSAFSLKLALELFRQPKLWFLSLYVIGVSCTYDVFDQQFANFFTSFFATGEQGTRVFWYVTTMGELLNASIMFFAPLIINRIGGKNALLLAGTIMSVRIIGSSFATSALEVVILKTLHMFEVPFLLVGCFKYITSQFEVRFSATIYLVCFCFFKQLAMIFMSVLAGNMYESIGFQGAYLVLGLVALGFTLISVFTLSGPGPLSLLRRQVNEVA
For a further assay, the target named is Mutant:Nb-9036 (Escherichia coli, UniProt P02920, G262W/G46W). Nature of the assay: ITC, α-NPG binding to double-Trp mutant:Nb-9036 complex.
Mutant:Nb-9036, sequence (P02920 whole entry G46W/G262W): as above
Another assay addresses Mutant:Nb-9065 (Escherichia coli, UniProt P02920, G262W/G46W). Nature of the assay: ITC, α-NPG binding to double-Trp mutant:Nb-9065 complex.
In assay [4] the target is T4, lactose permease of Escherichia coli (LacY), wild type (Escherichia coli, UniProt P02920 1-417).
T4 sequence: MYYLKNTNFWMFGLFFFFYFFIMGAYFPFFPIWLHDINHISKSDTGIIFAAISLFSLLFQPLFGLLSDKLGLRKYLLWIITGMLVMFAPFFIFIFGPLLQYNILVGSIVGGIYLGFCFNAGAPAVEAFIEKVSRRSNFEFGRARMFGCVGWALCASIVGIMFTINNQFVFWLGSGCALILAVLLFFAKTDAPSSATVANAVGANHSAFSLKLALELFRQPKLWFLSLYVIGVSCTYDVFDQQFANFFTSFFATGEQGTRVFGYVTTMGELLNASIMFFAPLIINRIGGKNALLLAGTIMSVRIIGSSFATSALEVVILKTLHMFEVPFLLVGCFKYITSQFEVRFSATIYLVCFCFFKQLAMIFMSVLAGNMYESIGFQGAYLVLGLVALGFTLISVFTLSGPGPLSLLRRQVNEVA
Nature of the assay: ITC.

Where [5] appears, read: ITC at 25 °C, WT pre-incubated with Nb-9036.
Where [6] appears, read: difference in the absence and presence of Nb-9036, WT.
The mark [7] stands for this setting: difference in the absence and presence of Nb-9036, WT, listed as galactoside.
The mark [8] stands for this setting: ITC at 25 °C, WT pre-incubated with Nb-9065.
The mark [9] stands for this setting: difference in the absence and presence of Nb-9065, WT.
Where [10] appears, read: ITC at 25 °C, mutant pre-incubated with Nb-9036.
Setting [11] is: difference in the absence and presence of Nb-9036, mutant.
[12] abbreviates: difference in the absence and presence of Nb-9036, mutant, listed as galactoside.
[13] abbreviates: ITC at 25 °C, mutant pre-incubated with Nb-9065.
[14] abbreviates: difference in the absence and presence of Nb-9065, mutant.

Values joined by “and” are separate entries in the source; they are usually repeats but may differ in a detail not shown here. Identical values can stand only once.

By Kd is commonly meant a measure of binding affinity in units of concentration.

Mutant:Nb-9065, sequence (P02920 whole entry G46W/G262W): as the sequence (P02920 whole entry G46W/G262W) above

With “IIA^Glc: a phosphotransferase protein of the glucose-specific phosphoenolpyruvate:carbohydrate phosphotransferase system (E. coli, unphosphorylated)”, the “IIA^Glc binding (thermogram)” value in the assay with WT LacY:Nb-9036 and with WT LacY:Nb-9065 was “no IIA^Glc binding” each time. Besides, the “IIA^Glc binding” value in the assay with double-Trp mutant was “does not bind”. Besides, the “heat of IIA^Glc binding” value with WT LacY [1] is listed as “endothermic”.

In the case of `O=[N+]([O-])c1ccc(O[C@H]2O[C@H](CO)[C@H](O)[C@H](O)[C@H]2O)cc1` [α-NPG, p-nitrophenyl-α-D-galactopyranoside], the “-TΔS” value on WT LacY [2] (ITC at 25 °C, no Nb) is −10.3 (3.6) kJ/mol; at WT:Nb-9036 (setting [5]), 17.2 (0.5) kJ/mol; at WT:Nb-9065 (setting [8]), 21.0 (1.7) kJ/mol; in [3], 11.8 (0.3) kJ/mol; on Mutant:Nb-9036 (setting [10]), 34.2 (2.9) kJ/mol; on Mutant:Nb-9065 (setting [13]), 12.43 (0.9) kJ/mol. In addition, the dissociation constant Kd on WT LacY [2] (ITC at 25 °C, no Nb) is 28800 nM; on WT:Nb-9036 (setting [5]) it was ~300 nM and 300 nM; at WT:Nb-9065 (setting [8]), 5700 nM; in assay [3], 5000 nM; on Mutant:Nb-9036 (setting [10]), ~300 nM and 300 nM; at Mutant:Nb-9065 (setting [13]) it was 7100 nM. The “N (stoichiometry)” value on WT LacY [2] (ITC at 25 °C, no Nb) is listed as 0.6 (0.1); on WT:Nb-9036 (setting [5]), 0.5 (0.1); at WT:Nb-9065 (setting [8]), 0.5 (0.0); in [3], 0.5 (0.0); on Mutant:Nb-9036 (setting [10]), 0.6 (0.0); at Mutant:Nb-9065 (setting [13]), 0.4 (0.0). In addition, the ΔG on WT LacY [2] (ITC at 25 °C, no Nb) was −25.9 (0.2) kJ/mol; on WT:Nb-9036 (setting [5]), −37.1 (0.6) kJ/mol; on WT:Nb-9065 (setting [8]) it was −30.0 (0.1) kJ/mol; in assay [3] it was −30.3 (0.3) kJ/mol; on Mutant:Nb-9036 (setting [10]), −37.5 (0.4) kJ/mol; on Mutant:Nb-9065 (setting [13]), −29.4 (0.2) kJ/mol. For the same molecule, the ΔH on WT LacY [2] (ITC at 25 °C, no Nb) is listed as −15.6 (3.4) kJ/mol; on WT:Nb-9036 (setting [5]), −54.3 (1.1) kJ/mol; at WT:Nb-9065 (setting [8]) it was −51.0 (1.8) kJ/mol; in assay [3], −42.1 (0.0) kJ/mol; at Mutant:Nb-9036 (setting [10]) it was −71.7 (2.5) kJ/mol; on Mutant:Nb-9065 (setting [13]), −41.8 (1.05) kJ/mol. In addition, the “fold decrease in Kd (increase in affinity) by Nb” value was approximately 96 fold on WT:Nb-9036 (Nb-9036:WT complex versus WT alone) and approximately 19 fold at Mutant:Nb-9036 (Nb-9036:mutant complex versus mutant alone). For the same molecule, the ΔΔG result at WT:Nb-9036 (setting [6]) was “[−11.2 ^**] kJ/mol”; on WT:Nb-9065 (setting [9]), “[−4.1 ^**] kJ/mol”; on Mutant:Nb-9036 (setting [11]), “[−7.2 ^**] kJ/mol”; at Mutant:Nb-9065 (setting [14]) it was “[0.9^ns] kJ/mol”. The ΔΔH result is “[−38.7 ^**] kJ/mol” at WT:Nb-9036 (setting [6]); -9.25 kcal/mol on WT:Nb-9036 (setting [7]); “[−35.4 ^*] kJ/mol” on WT:Nb-9065 (setting [9]); “[−29.6 ^**] kJ/mol” at Mutant:Nb-9036 (setting [11]); -7.07 kcal/mol at Mutant:Nb-9036 (setting [12]); “[0.3^ns] kJ/mol” at Mutant:Nb-9065 (setting [14]). In addition, the “−TΔΔS” value was “[27.5 ^*] kJ/mol” at WT:Nb-9036 (setting [6]); 6.57 kcal/mol at WT:Nb-9036 (setting [7]); “[31.3 ^*] kJ/mol” at WT:Nb-9065 (setting [9]); “[22.4 ^*] kJ/mol” on Mutant:Nb-9036 (setting [11]); 5.35 kcal/mol on Mutant:Nb-9036 (setting [12]); “[0.6^ns] kJ/mol” at Mutant:Nb-9065 (setting [14]). The “fold decrease in Kd by Nb” value on WT:Nb-9065 (Nb-9065:WT complex versus WT alone) was 4 fold. Besides, the “change in Kd by Nb” value at Mutant:Nb-9065 (Nb-9065:mutant complex versus mutant alone) is recorded as “no detectable change”.

Turning to `O=[N+]([O-])c1ccc(O[C@H]2O[C@H](CO)[C@@H](O)[C@H](O)[C@H]2O)cc1` [nitrophenyl-α-D-glucopyranoside], the “titration thermogram (control)” value on WT LacY [2] (ITC, 1 mM injected into WT LacY) was “small, relatively flat thermogram”.

B1: IIA^Glc, phosphotransferase protein of the glucose-specific phosphoenolpyruvate:carbohydrate phosphotransferase system (natural protein, E. coli, UniProt P69783 1-169, looked up)
chain: MGLFDKLKSLVSDDKKDTGTIEIIAPLSGEIVNIEDVPDVVFAEKIVGDGIAIKPTGNKMVAPVDGTIGKIFETNHAFSIESDSGVELFVHFGIDTVELKGEGFKRIAEEGQRVKVGDTVIEFDLPLLEEKAKSTLTPVVISNMDEIKELIKLSGSVTVGETPVIRIKK
As for B1, the binding result in assay [4] is on record as “binds”.

The values are drawn from paper PMC6478161 (Biochemistry, 2016).
